From the NIST ThermoML archive (doi:10.1021/je600557n)

Assays:
[1] = xn = mol fraction of the nth substance listed; conditions: 101 kPa, Liquid
[2] = molar heat capacity at constant pressure; xn = mol fraction of the nth substance listed; conditions: 101 kPa, Liquid, Small sample (50 mg) DSC
[3] = refractive index (Na D-line) (dimensionless); xn = mol fraction of the nth substance listed; conditions: 101 kPa, Liquid, Standard Abbe refractometry

CC1CCCO1 (centres undefined) [2-methyltetrahydrofuran] + C[S+](C)[O-]
Conditions	mass density, [1] [kg/m3]	molar heat capacity at constant pressure, [2] [J/K/mol]	refractive index, [3]	viscosity, [1] [mPa·s]
293.15 K, x2 = 0.0675	865.78	–	1.4121	0.537
293.15 K, x2 = 0.1033	–	155.2	–	–
293.15 K, x2 = 0.1168	875.28	–	1.4152	0.561
293.15 K, x2 = 0.1368	–	155.1	–	–
293.15 K, x2 = 0.2208	896.02	–	1.4215	0.631
293.15 K, x2 = 0.2714	–	155	–	–
293.15 K, x2 = 0.3228	917.54	–	1.4282	0.719
293.15 K, x2 = 0.3775	–	154.6	–	–
293.15 K, x2 = 0.4044	935.66	–	1.4336	0.78
293.15 K, x2 = 0.4694	950.78	–	1.438	0.876
293.15 K, x2 = 0.4881	–	154.2	–	–
293.15 K, x2 = 0.5058	959.5	–	1.4407	0.926
293.15 K, x2 = 0.5877	–	153.8	–	–
293.15 K, x2 = 0.5888	980.16	–	1.4468	1.047
293.15 K, x2 = 0.6274	–	153.6	–	–
293.15 K, x2 = 0.6692	1001.25	–	1.4527	1.194
293.15 K, x2 = 0.6833	–	153.2	–	–
293.15 K, x2 = 0.7448	1022.04	–	1.4589	1.354
293.15 K, x2 = 0.7593	–	152.9	–	–
293.15 K, x2 = 0.8192	1043.57	–	1.4651	1.55
293.15 K, x2 = 0.8559	–	152	–	–
293.15 K, x2 = 0.9343	–	151.2	–	–
293.15 K, x2 = 0.9523	1084.75	–	1.477	2.004
293.15 K, x2 = 0.9687	–	150.8	–	–
303.15 K, x2 = 0.0609	854.29	–	1.4055	0.468
303.15 K, x2 = 0.1033	–	158.4	–	–
303.15 K, x2 = 0.1281	867.26	–	1.4096	0.501
303.15 K, x2 = 0.1368	–	158.3	–	–
303.15 K, x2 = 0.2161	884.84	–	1.4152	0.554
303.15 K, x2 = 0.2714	–	157.7	–	–
303.15 K, x2 = 0.3184	906.38	–	1.4216	0.628
303.15 K, x2 = 0.3775	–	157.3	–	–
303.15 K, x2 = 0.4156	928.04	–	1.4281	0.71
303.15 K, x2 = 0.4881	–	156.7	–	–
303.15 K, x2 = 0.5105	950.44	–	1.4349	0.807
303.15 K, x2 = 0.5491	959.9	–	1.4378	0.852
303.15 K, x2 = 0.584	968.73	–	1.4405	0.896
303.15 K, x2 = 0.5877	–	156.1	–	–
303.15 K, x2 = 0.6274	–	155.8	–	–
303.15 K, x2 = 0.6652	989.97	–	1.4469	1.013
303.15 K, x2 = 0.6833	–	155.4	–	–
303.15 K, x2 = 0.7439	1011.62	–	1.4535	1.149
303.15 K, x2 = 0.7593	–	154.7	–	–
303.15 K, x2 = 0.8161	1032.51	–	1.4595	1.286
303.15 K, x2 = 0.8558	–	153.8	–	–
303.15 K, x2 = 0.9343	–	152.9	–	–
303.15 K, x2 = 0.9427	1071.55	–	1.4703	1.623
303.15 K, x2 = 0.9687	–	152.7	–	–
313.15 K, x2 = 0.0723	846.13	–	1.4004	0.428
313.15 K, x2 = 0.1033	–	161.5	–	–
313.15 K, x2 = 0.1209	855.52	–	1.4034	0.452
313.15 K, x2 = 0.1368	–	161.3	–	–
313.15 K, x2 = 0.2135	874.07	–	1.4093	0.497
313.15 K, x2 = 0.2714	–	160.6	–	–
313.15 K, x2 = 0.3285	898.41	–	1.4171	0.566
313.15 K, x2 = 0.3775	–	159.9	–	–
313.15 K, x2 = 0.4268	920.49	–	1.4237	0.64
313.15 K, x2 = 0.4881	–	158.9	–	–
313.15 K, x2 = 0.502	938.3	–	1.4291	0.706
313.15 K, x2 = 0.5525	950.72	–	1.433	0.751
313.15 K, x2 = 0.5877	–	158.2	–	–
313.15 K, x2 = 0.5881	959.69	–	1.4357	0.786
313.15 K, x2 = 0.6274	–	158	–	–
313.15 K, x2 = 0.6613	978.86	–	1.4415	0.872
313.15 K, x2 = 0.6833	–	157.4	–	–
313.15 K, x2 = 0.7441	1001.63	–	1.4484	0.997
313.15 K, x2 = 0.7593	–	156.7	–	–
313.15 K, x2 = 0.8488	1032.24	–	1.4572	1.162
313.15 K, x2 = 0.8558	–	155.7	–	–
313.15 K, x2 = 0.9343	–	154.5	–	–
313.15 K, x2 = 0.9474	1063.08	–	1.4666	1.374
313.15 K, x2 = 0.9687	–	154.1	–	–
